Columns and labels:
[1] = target: Sodium-dependent serotonin transporter (Homo sapiens, UniProt P31645)
[2] = target: Sodium-dependent noradrenaline transporter (Homo sapiens, UniProt P23975)
[3] = target: Sodium-dependent dopamine transporter (Homo sapiens, UniProt Q01959)
Sequence of Sodium-dependent dopamine transporter (Q01959 whole entry): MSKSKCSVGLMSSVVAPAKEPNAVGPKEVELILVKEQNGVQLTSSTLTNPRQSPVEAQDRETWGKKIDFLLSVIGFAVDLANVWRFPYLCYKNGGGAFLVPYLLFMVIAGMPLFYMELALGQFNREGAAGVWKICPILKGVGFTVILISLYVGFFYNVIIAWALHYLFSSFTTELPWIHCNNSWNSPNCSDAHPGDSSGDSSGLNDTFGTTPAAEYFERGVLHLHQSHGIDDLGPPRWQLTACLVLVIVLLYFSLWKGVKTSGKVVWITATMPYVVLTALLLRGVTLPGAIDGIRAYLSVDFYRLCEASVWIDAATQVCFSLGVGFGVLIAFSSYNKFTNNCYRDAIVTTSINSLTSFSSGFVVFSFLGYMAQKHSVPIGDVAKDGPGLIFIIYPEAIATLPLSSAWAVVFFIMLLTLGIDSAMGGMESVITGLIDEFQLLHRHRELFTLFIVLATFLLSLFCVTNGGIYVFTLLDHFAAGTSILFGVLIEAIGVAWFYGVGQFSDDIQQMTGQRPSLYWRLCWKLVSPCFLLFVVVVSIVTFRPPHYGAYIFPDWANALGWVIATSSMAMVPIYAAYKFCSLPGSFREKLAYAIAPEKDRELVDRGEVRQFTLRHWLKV

Sequence of Sodium-dependent noradrenaline transporter (P23975 whole entry): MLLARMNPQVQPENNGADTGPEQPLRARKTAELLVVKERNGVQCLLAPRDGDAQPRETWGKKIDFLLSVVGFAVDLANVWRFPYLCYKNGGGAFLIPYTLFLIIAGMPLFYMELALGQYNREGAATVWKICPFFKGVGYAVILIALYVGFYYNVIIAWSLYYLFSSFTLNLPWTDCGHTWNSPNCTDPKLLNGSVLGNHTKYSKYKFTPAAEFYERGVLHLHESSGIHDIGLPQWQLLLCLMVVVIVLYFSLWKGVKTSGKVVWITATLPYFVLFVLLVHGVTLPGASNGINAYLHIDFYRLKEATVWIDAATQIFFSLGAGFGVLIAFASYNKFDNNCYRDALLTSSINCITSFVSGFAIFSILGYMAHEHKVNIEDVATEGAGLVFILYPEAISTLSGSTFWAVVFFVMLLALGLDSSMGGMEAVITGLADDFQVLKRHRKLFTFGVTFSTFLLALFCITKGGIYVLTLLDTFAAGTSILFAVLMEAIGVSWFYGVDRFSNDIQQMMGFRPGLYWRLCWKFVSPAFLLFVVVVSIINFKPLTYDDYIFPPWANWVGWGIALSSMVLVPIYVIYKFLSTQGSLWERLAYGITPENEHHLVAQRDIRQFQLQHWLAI
Sequence of Sodium-dependent serotonin transporter (P31645 whole entry): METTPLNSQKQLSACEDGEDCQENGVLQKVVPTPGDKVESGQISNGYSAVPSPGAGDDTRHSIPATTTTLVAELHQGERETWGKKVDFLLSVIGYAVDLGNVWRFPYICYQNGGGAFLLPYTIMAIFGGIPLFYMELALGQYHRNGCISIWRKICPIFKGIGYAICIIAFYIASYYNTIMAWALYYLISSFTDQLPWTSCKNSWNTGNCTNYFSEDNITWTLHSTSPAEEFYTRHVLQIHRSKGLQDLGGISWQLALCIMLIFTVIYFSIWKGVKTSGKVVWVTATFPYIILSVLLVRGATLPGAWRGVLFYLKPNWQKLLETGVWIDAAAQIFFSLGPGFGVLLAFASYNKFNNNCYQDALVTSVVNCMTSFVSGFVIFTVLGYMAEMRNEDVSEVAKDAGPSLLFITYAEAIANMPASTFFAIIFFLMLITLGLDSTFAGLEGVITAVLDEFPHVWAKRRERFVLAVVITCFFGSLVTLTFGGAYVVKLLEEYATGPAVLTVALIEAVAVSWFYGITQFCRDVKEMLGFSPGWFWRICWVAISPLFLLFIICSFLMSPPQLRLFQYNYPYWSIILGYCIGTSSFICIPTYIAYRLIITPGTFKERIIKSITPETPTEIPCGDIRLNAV

| Compound | Ki [1] [µM] | Ki [2] [µM] | Ki [3] [µM] |
| --- | --- | --- | --- |
| CN1[C@H](/C=C/c2ccccc2)CCC[C@@H]1/C=C/c1ccccc1 | 1.89 | 0.277 | 0.043 |
| CN1[C@@H](C[C@@H](O)c2ccccc2)CCC[C@H]1CC(=O)c1ccccc1 [Lobeline] | > 10 | 1.87 | 5.4 |
| CN1[C@@H](CCc2ccccc2)CCC[C@H]1CCc1ccccc1 | 0.53 | 1.8 | 0.097 |
